Ends that are not written are not given here.
How the values were obtained:
[1] = tested on: antiserum to iso-rANP(1-20) (P2A); test: Radioimmunoassay (RIA) with anti-P2A antiserum and 125I-P2A-Y tracer; format: binding, New Zealand white rabbits; conditions: antiserum used for the RIA
Excerpt: The procedure was repeated to produce the same 20 amino acid residue fragment with a tyrosine residue attached to the N-terminal serine. The 20-residue peptide (P2A) was mixed with Freund's complete adjuvant and injected subcutaneously into New Zealand white rabbits. After boosting at 5 weeks after the initial injection the rabbits were bled 1 week later. […] Tyrosinated P2A (P2A-Y) was iodinated using the chloramine T method and the iodinated tracer was purified by HPLC on a Waters µBondapak C₁₈ column. For radioimmunossay (RIA) the buffer contained 0.1M NaHPO₄ buffer, pH 7.4, 0.05M NaCl, 0.1% BSA and 0.02% […]. The RIA incubation mixture contained 3-100 pg of P2A in 100 µ l of buffer, 100 µl of diluted antiserum and 100 µl of ¹²⁵I-P2A-Y (approx. 8000 cpm). After incubation overnight at 4°C bound and free iodinated peptide were separated by second antibody precipitation using goat anti-rabbit - globulin. The sensitivity of the assay was 2-3 pg/tube with 50% displacement at 25-30 pg/tube.
The RIA was then used to monitor the purification of the peptide de novo from atrial extracts using gel-filtration and reverse-phase HPLC. The procedure used was essentially the same as the one briefly described above for the purification of ANP, except that the initial extraction and the gel-filtration stages were done in the presence of several protease inhibitors.

[2] = tested on: Aortic rings (thoracic aortae); test: Vasorelaxant activity on phenylephrine-contracted aortic rings; set-up: species or system New Zealand White rabbits
Procedure: Aortic rings (3-4mm) were cut from the thoracic aortae of New Zealand White rabbits. The rings were suspended in a 10 ml tissue bath containing Kreb's Ringer Solution, pH 7.4 at 37°C. The rings were maintained at about 70% of maximal contraction with phenylephrine in doses ranging from 1 x 10⁻⁶ to 5 x 10⁻⁸M. Vasorelaxant activity or peptides was tested by adding various concentrations of peptide to the bath.

[3] = tested on: bioassay rats; test: Bolus injection into anesthetized bioassay rats: urinary and cardiovascular responses; format: in vivo, male Sprague-Dawley rats
Procedure: Experiments were performed using male Sprague-Dawley rats, ranging in weight from 270-362 g. The rats were anesthetized by an intraperitoneal injection of sodium pentobarbital (70 mg.kg-1; MTC Pharmaceuticals, Hamilton, Ont.). Additional small amounts of anesthetic were administered as required in the course of the experiment. […] After installing a tracheal cannula, a femoral vein was cannulated and a priming infusion of saline (0.9% NaCl) was administered over a 20 min period (1.1 ml); this was followed by a maintenance saline infusion of 1.2 ml.h-1. The femoral artery was then cannulated for blood pressure measurement (Statham pressure transducer, model P23Db). A catheter was also advanced via the right external jugular vein towards the right heart for bolus injections of vehicle, ANF or the atrial peptide of the present invention (AHP). After tying off the penis, the bladder was cannulated for urine collection. Rates were not used or experiments aborted if the urine became bloody. The EKG was recorded for determination of heart rate.
Urine was collected in preweighed vials and volume calculated by weighing. The time for sequential urine collections was 5 min or, increments of 4 min until there was enough urine volume for electrolyte determinations (0.25 ml or 16 drops). Rat kidneys were removed at the termination of the experiments so that urinary excretion measurements could be normalized for total kidney weight. Measurements of NA+ and K+ were obtained using ion specific electrodes and Cl- was obtained by coulometric titration.
Zero time was established by 40-60 mins from the beginning the priming saline infusion. The control measurements were carried out over 20 mins or, until there was sufficient urine collection for electrolyte determinations. A bolus injection of vehicle, rANP(99-126) or iso-rANP(1-46) or iso-rANP(17-46) was then administered into the jugular vein catheter and the catheter immediately cleared of remaining injectate by a secondary bolus of 0.2 ml saline. The rANP(99-126) was obtained from Armand-Frappier, Montreal. Cardiovascular measurements were analyzed at 5 min intervals during control and at 1, 5, 10, 15 and 20 mins following administration of injectate. […] Thus, residues 17-46 of the native peptide represent a functional, as well as structural, homologue of both ANP and BNP. Moreover, it would appear that residues 1-20 of iso-rANP(1-46) are not required for biological activity. […] It required twice the dose of iso-rANP(17-46) (1.5 nanomol) to produce equivalent average decreases in mean arterial blood pressure and heart rate as rANP(99-126) (0.7 nanomol). […] Variability of response of assay rats to injected peptides is evident from the rather larger variances (SEM).

Row | Substance | cross-reaction with antiserum [1] | smooth muscle vaso-relaxant activity ([2]; rabbit aortic rings at about 70% of maximal contraction with phenylephrine, result in words) | higher dose required to produce the same relaxation obtained by 50 ng of rANP(99-126) ([2]; rabbit aortic rings, relative to 50 ng of rANP(99-126)) [fold] | potency compared with ANP(99-126) ([2]; rabbit aortic rings, result in words) | effect in increasing urinary volume as well as Na+, K+ and Cl- excretion ([3]; 3.0 nanomol, four-fold larger dose than rANP(99-126), compared with rANP(99-126)) | potency compared with rANP(99-126) ([3]; as shown in Table 1, result in words) | dose to produce equivalent average decreases in mean arterial blood pressure and heart rate ([3]; bolus into jugular vein catheter) [nmol] | urinary responses ([3]; dose 0.9 nmol) | additional effect on cardiovascular responses (mean arterial blood pressure, heart rate) ([3]; dose increased to 3.0 nanomol) | diuretic, natriuretic, hypotensive and bradycardic responses ([3]; injected into bioassay rats, result in words)
1 | ANP: atrial natriuretic peptide, length not specified at this place | did not cross-react | – | – | – | – | – | – | – | – | –
2 | MAHSSSCFGEKIDRIGAVSRLGCDILLIAQ (cysteine pairing not given here) [iso-rANP(17-46), chemically synthesized peptide corresponding to residues 17-46 of iso-rANP(1-46)] | – | showed smooth muscle vaso-relaxant activity | 20 | less potent | somewhat lesser effect | somewhat less than rANP(99-126) | 1.5 | only a small effect in most rats | no additional effect | elicited diuretic, natriuretic, hypotensive and bradycardic responses qualitatively similar to both the native peptide and rANP
